Measurements published in patent US5849760A, “2-(arylalkenyl)azacycloalkane derivatives as ligands for sigma receptors” (Institut de Recherche Jouveinal, priority 1993, dated 1998).
Counter-ions that a name gives are not always drawn.

Key:
[1] = test system: cysteamine-induced gastroduodenal ulcers; assay: Cysteamine-induced gastroduodenal ulcer; type: in vivo, male Sprague-Dawley rats; details: I.P. route, 30 min before ulcerogenic agent, dose inhibiting 50% of ulcers; for ED50: Rattus norvegicus, ip, 18 h
Description: The activity of the compounds of the invention with respect to the gastrointestinal tract was shown in the rat by their ability to inhibit gastroduodenal ulcers induced by the administration of cysteamine. In terms of practical methodology, the study is performed according to the method described by Robert, A., et al., in Digestion, 1974, Vol. 11, pp. 199-214, in groups of male Sprague-Dawley rats with an average weight of 200 g, to which a cysteamine hydrochloride solution is administered by subcutaneous injection in a dose of 400 mg/kg. The test compounds are administered to the animals 1 h or 30 min, respectively, before the ulcerogenic agent, depending on whether the oral or intraperitoneal route is used. Eighteen hours later, the rats are sacrificed by elongation; the stomach and duodenum are removed, rinsed with physiological salt solution, and pinned to a card. The antropyloroduodenal region is examined for ulcers, and the area of the ulcers, expressed in mm^2, is determined by multiplying the two main perpendicular axes of the lesion. Statistical analysis of the results is performed by means of Student's t-test for the ulcerated areas in comparison with a control group. The results obtained after intraperitoneal administration are presented in Table 3 and are expressed as the ED50, which is the effective dose (mg/kg) of compound inhibiting 50% of the cysteamine-induced ulcers. Igmesine is presented by way of comparison.

sigma receptors = target: T1, sigma receptors (Rattus norvegicus, UniProt Q9R0C9); assay: In vitro binding to sigma receptors with (+)[^3 H]SKF10.047; details: for IC50, haloperidol / IC50, example: ratio to haloperidol, second series, rat brain membranes, [^3 H]SKF10.047; for IC50: rat brain membrane, (+)[^3 H]SKF10.047
T1 construct: a preparation of rat brain membrane; from tissue; host or cells: rat brain membranes
T1 sequence (Q9R0C9 whole entry): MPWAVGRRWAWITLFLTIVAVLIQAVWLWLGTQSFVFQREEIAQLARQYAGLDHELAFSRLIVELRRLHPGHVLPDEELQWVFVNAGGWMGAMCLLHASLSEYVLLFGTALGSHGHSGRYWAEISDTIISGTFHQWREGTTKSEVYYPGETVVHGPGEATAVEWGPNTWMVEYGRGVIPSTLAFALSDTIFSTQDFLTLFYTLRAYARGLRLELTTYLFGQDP
Description: Experiments on binding to sigma and PCP receptors are performed with the ligands (+)[^3 H]SKF10.047 and [^3 H]TCP, respectively, by the technique described by Largent, B. L., et al. in J. Pharmacol. Exp. Ther., 1986, Vol. 238, pp. 739-748. The principle of this technique is to place in competition the affinity of the test substance and that of a radioactive ligand specific for the receptor being studied.
The results are expressed as the IC50 of the test substance, which is the concentration at which the tritiated ligand is displaced from 50% of its binding sites in the membrane preparation used.

PCP receptors = assay: In vitro binding to PCP receptors with [^3 H]TCP; details: rat brain membrane
Description: The test of binding to phenylcyclidine receptors (PCP receptors), performed in the presence of a ligand specific for PCP receptors, [^3 H]TCP, was used to investigate any undesirable interaction of the compounds of the invention with these receptors.
The principle of this technique is to place in competition the affinity of the test substance and that of a radioactive ligand specific for the receptor being studied.
The technique consists in incubating a preparation of rat brain membrane loaded with the labeled ligand specific for the receptor under study in solutions of varying concentration of the test substance. After filtration, one measures the radioactivity of the solution, which represents the displacement of this labeled ligand by the test substance.

Compound	IC50, haloperidol / IC50, example (sigma receptors)	ED50 [1] [mg/kg]	further results
CCC(C/C=C/c1ccccc1)(c1ccccc1)N(C)CC1CC1 (single isomer, unassigned; (+)) [Igmesine, (+)-N-(cyclopropylmethyl)-1-ethyl-N-methyl-1,4-diphenyl-3-butene-1-ylaminehydrochloride, reference compound]	–	5.95	–
C(=C\c1ccccc1)/CC1CCCN1CC1CC1 (single isomer, unassigned; (+)) [Example 1.2, (+)-(E)-2-cinnamyl-1-cyclopropylmethylpyrrolidine]	–	< 0.1	–
C(=C\c1ccccc1)/CC1CCCCN1CC1CC1 (single isomer, unassigned; (-)) [Example 2A.3, (-)-(E)-2-cinnamyl-1-(cyclopropylmethyl)piperidine]	1.4	–	–
C(=C/c1ccccc1)/CC1CCCCN1CC1CC1 (stereo not drawn) [Example 2A.6, (Z)-2-cinnamyl-1-cyclopropylmethylpiperidine]	–	< 0.1	IC50 (PCP receptors): > 10000 nM; IC50 (sigma receptors): 34.3 nM
C(=C\c1ccccc1)/CC1CCCCN1CC1CC1 (stereo not drawn) [Example 2A.1, (E)-2-cinnamyl-1-cyclopropylmethylpiperidine]	–	0.1	–
Fc1ccc(/C=C\CC2CCCCN2CC2CC2)cc1 (stereo not drawn) [Example 2B.2, (Z)-2-(p-fluorocinnamyl)-1-cyclopropylmethylpiperidine]	1.6	–	–
C(=C\c1ccccc1)/CC1CCCCN1CCc1ccccc1 (stereo not drawn) [Example 2A.5, (E)-2-cinnamyl-1-(phenethyl)piperidine]	1.0	–	–
C(=C\c1ccccc1)/CC1CCCN1CC1CCC1 (stereo not drawn) [Example 1.4, (E)-2-cinnamyl-1-cyclobutylmethylpyrrolidine]	–	0.137	IC50 (PCP receptors): > 10000 nM; affinity for sigma receptors (sigma receptors; in words): strong affinity for sigma receptors; IC50 (sigma receptors): 4.52 nM
C(=C\c1ccccc1)/CC1CCCCN1CC1CCC1 (stereo not drawn) [Example 2A.4, (E) -2-cinnamyl-1-cyclobutylmethylpiperidine]	2.3	–	–
C(=C\c1ccccc1)/CC1CCCCN1CC1CC1 (single isomer, unassigned; (+)) [Example 2A.2, (+)-(E)-2-cinnamyl-1-(cyclopropylmethyl)piperidine]	–	< 0.1	–
C(=C\c1ccccc1)/CC1CCCN1CC1CC1 (racemic) [Example 1.1, (±)-(E)-2-cinnamyl-1-cyclopropylmethylpyrrolidine]	–	0.185	IC50 (PCP receptors): > 10000 nM; IC50 (sigma receptors): 34.2 nM

Continued, in another order:

IC50, haloperidol / IC50, example (sigma receptors)	Compound	ED50 [1] [mg/kg]	further results
4.3	C(=C/c1ccccc1)/CC1CCCN1CC1CC1 (stereo not drawn) [Example 2K, (Z)-2-cinnamyl-1-cyclopropylmethylpyrrolidine]	–	–
1.3	C(=C\c1ccccc1)/CC1CCCN1CCc1ccccc1 (stereo not drawn) [Example 1.6, (E)-2-cinnamyl-1-phenethylpyrrolidine]	–	–
1.1	Fc1ccc(/C=C/CC2CCCN2CC2CC2)cc1 (stereo not drawn) [Example 2L, (E)-2-(p-fluorocinnamyl)-1-cyclopropylmethylpyrrolidine]	–	–
1.6	C(=C\c1ccccc1)/CC1CCCN1CC1CC1 (single isomer, unassigned; (-)) [Example 1.3, (-)-(E)-2-cinnamyl-1-cyclopropylmethylpyrrolidine]	–	ED50, cysteamine-induced ulcer ([1]; 1080 min): < 0.100 mg/kg
0.8	FC(F)(F)c1ccc(/C=C/CC2CCCCN2CC2CC2)cc1 (stereo not drawn) [Example 2G, (E)-2-(p-trifluoromethylcinnamyl)-1-cyclopropylmethylpiperidine]	–	–
